Test systems include HS 578T breast; T-47D breast; HCT-15 colon; HCT-116 colon; SNB-75 CNS; SF-539 CNS; M14 melanoma; EKVX NSCLC; MCF7 breast; HL-60(TB) leukemia.
What all share (assay): DTP human tumour cell line panel, 48 h

The text below walks through data of PubChem BioAssay (NCI).

What is called TGI is the concentration giving total growth inhibition. The term GI50 denotes the concentration that inhibits growth by half.

Each structure is given as a SMILES string.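 Results reflect a 48-hour exposure of cells in 96-well plates to compound at five concentrations. Abbreviation: GI50, concentration required for 50% inhibition of growth. At the TGI there is no net growth.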 Bounds are passed on as bounds.

Consider `CCOC(=O)C1c2[nH]c3ccccc3c2CCN1C(=O)c1ccco1` (configuration not stated), for which the concentration for total growth inhibition (TGI) in the assay with HS 578T breast, in the assay on T-47D breast, with HCT-15 colon, with HCT-116 colon, with SNB-75 CNS and with SF-539 CNS was over 10 µM throughout. Besides, the TGI with M14 melanoma, in the assay on EKVX NSCLC, in the assay on MCF7 breast and in the assay with HL-60(TB) leukemia was over 10 µM in each case.

With `COc1ccc(Nc2c3c4c(cccc4[nH]c2=O)C(=O)c2ccccc2-3)cc1`, the concentration for 50% growth inhibition (GI50) with HS 578T breast was 0.0238 µM; with T-47D breast, 38.4 µM; in the assay on HCT-15 colon, 0.0271 µM; in the assay on HCT-116 colon, under 0.01 µM; with SNB-75 CNS, 0.0278 µM; in the assay on SF-539 CNS it was 0.0206 µM. The concentration for 50% growth inhibition (GI50) is under 0.0192 µM in the assay with M14 melanoma, 0.0552 µM in the assay with EKVX NSCLC, under 0.0182 µM in the assay with MCF7 breast and 0.0188 µM with HL-60(TB) leukemia. The TGI in the assay with HS 578T breast was over 45.9 µM; in the assay on T-47D breast, over 100 µM; with HCT-15 colon, over 100 µM; with HCT-116 colon, 0.104 µM; in the assay on SNB-75 CNS it was over 72.1 µM; with SF-539 CNS, 0.0687 µM. For the same molecule, the total growth inhibition concentration (TGI) with M14 melanoma is over 100 µM; with EKVX NSCLC, over 100 µM; in the assay on MCF7 breast it was 21.2 µM; with HL-60(TB) leukemia it was 0.0393 µM.

For the molecule `O=C(Nc1ncc(Cc2ccccc2)s1)c1ccc2c(c1)OCCO2`, the GI50 was 0.0353 µM in the assay on HS 578T breast; 0.0523 µM in the assay with T-47D breast; 0.0385 µM with HCT-15 colon; 0.0405 µM in the assay on HCT-116 colon; 0.0277 µM in the assay on SNB-75 CNS; 0.0283 µM in the assay on SF-539 CNS. The 50% growth inhibitory concentration (GI50) in the assay with EKVX NSCLC was 0.133 µM; in the assay on MCF7 breast, 0.0546 µM; in the assay with HL-60(TB) leukemia, 0.0416 µM. The total growth inhibition concentration (TGI) is over 100 µM in the assay with HS 578T breast; over 100 µM with T-47D breast; over 100 µM in the assay with HCT-15 colon; over 100 µM in the assay on HCT-116 colon; 1.66 µM in the assay with SNB-75 CNS; 0.177 µM with SF-539 CNS. Also, the TGI with EKVX NSCLC, with MCF7 breast and with HL-60(TB) leukemia was over 100 µM throughout.

Consider `O=C(c1ccccc1)c1ccc(Cl)c([N+](=O)[O-])c1`, for which the GI50 was 17.5 µM with HS 578T breast; 7.54 µM in the assay on T-47D breast; 2.95 µM with HCT-15 colon; 4.78 µM in the assay with HCT-116 colon; 4.74 µM in the assay on SNB-75 CNS; 5.1 µM with SF-539 CNS. The values for the GI50 in the assay with M14 melanoma, in the assay on MCF7 breast and with HL-60(TB) leukemia were 4.37 µM, 2.56 µM and 2.56 µM, respectively. The TGI was found to be 95.3 µM in the assay with HS 578T breast; 38.6 µM with T-47D breast; 9.86 µM with HCT-15 colon; 18.1 µM in the assay with HCT-116 colon; 18.9 µM in the assay on SNB-75 CNS; 19 µM in the assay with SF-539 CNS. The TGI turned out to be 17.8 µM with M14 melanoma, 9.74 µM with MCF7 breast and 6.58 µM in the assay on HL-60(TB) leukemia.

In the case of `COc1ccccc1CNCCCN1C(=O)c2ccc3c4c(ccc(c24)C1=O)C(=O)N(CCCNCCCCNCCCCN)C3=O`, the GI50 in the assay on HS 578T breast is 2.83 µM; in the assay on T-47D breast it was 0.782 µM; in the assay on HCT-15 colon, 2.92 µM; in the assay on HCT-116 colon, 0.407 µM; with SNB-75 CNS, 1.3 µM; in the assay with SF-539 CNS, 2.15 µM. For the same molecule, the GI50 was 1.87 µM in the assay on M14 melanoma, 0.498 µM with MCF7 breast and 1.28 µM in the assay with HL-60(TB) leukemia. The concentration for total growth inhibition (TGI) in the assay with HS 578T breast turned out to be 14.4 µM; with T-47D breast, 3.14 µM; with HCT-15 colon, 22.8 µM; with SNB-75 CNS, 3.68 µM; in the assay with SF-539 CNS, 5.5 µM; in the assay on M14 melanoma, 4.68 µM. For the same molecule, the total growth inhibition concentration (TGI) was found to be 2.24 µM in the assay on MCF7 breast and 5.71 µM in the assay on HL-60(TB) leukemia.

Turning to `Cn1cc(C2=C(c3c4n(c5ccccc35)CC(CN)C4)C(=O)NC2=O)c2ccccc21` (configuration not stated), the GI50 in the assay on HS 578T breast is 1.03 µM; in the assay on T-47D breast, 5.26 µM; in the assay on HCT-15 colon it was 4.33 µM; in the assay with HCT-116 colon it was 2.32 µM; in the assay with SNB-75 CNS it was 0.246 µM; with SF-539 CNS, 2.99 µM. Moreover, the GI50 in the assay on M14 melanoma is 3.3 µM; in the assay on MCF7 breast it was 1.4 µM; with HL-60(TB) leukemia, 3.35 µM. The TGI in the assay with HS 578T breast is 5.6 µM; in the assay with T-47D breast, 13.5 µM; with HCT-15 colon it was 15.8 µM; in the assay on HCT-116 colon, 6.22 µM; in the assay on SNB-75 CNS, 2.93 µM; with SF-539 CNS, 6.24 µM. Further, the concentration for total growth inhibition (TGI) with M14 melanoma was determined as 7.33 µM; in the assay on MCF7 breast, 4.85 µM; with HL-60(TB) leukemia it was 9.91 µM.

As for `C=CCCC(O)c1ccc(C(O)CCCCCCCCCCCC)o1` (configuration not stated), the GI50 in the assay on HS 578T breast was 24.2 µM; in the assay on T-47D breast it was 34.3 µM; with HCT-15 colon, 16.2 µM; with HCT-116 colon, 14.8 µM; in the assay on SNB-75 CNS, 33.3 µM; with SF-539 CNS, 19.7 µM. Further, the GI50 in the assay with M14 melanoma is 17.8 µM; in the assay on EKVX NSCLC it was 23.9 µM; in the assay on MCF7 breast, 82.2 µM. The total growth inhibition concentration (TGI) was 55.4 µM with HS 578T breast; over 100 µM in the assay with T-47D breast; 31.6 µM in the assay on HCT-15 colon; 28.6 µM in the assay on HCT-116 colon; over 100 µM in the assay on SNB-75 CNS; 37.5 µM in the assay on SF-539 CNS. Besides, the concentration for total growth inhibition (TGI) in the assay on M14 melanoma was 35.3 µM; in the assay with EKVX NSCLC, 50.4 µM; in the assay with MCF7 breast, over 100 µM.

For `COC1OCC(OS(=O)(=O)c2ccc(C)cc2)C(OC(=O)c2ccccc2)C1OC(=O)c1ccccc1` (configuration not stated), the GI50 in the assay on HS 578T breast is 1.89 µM; with T-47D breast, 3.11 µM; in the assay on HCT-15 colon, 5.3 µM; in the assay with HCT-116 colon it was 3.45 µM; in the assay on SNB-75 CNS, 1.78 µM; in the assay on SF-539 CNS, 5 µM. Further, the results for the GI50 with EKVX NSCLC, in the assay on MCF7 breast and with HL-60(TB) leukemia were 45.3 µM, 3.01 µM and 4.08 µM, respectively. Besides, the TGI in the assay on HS 578T breast was 27.4 µM; in the assay with T-47D breast, over 100 µM; in the assay on HCT-15 colon, over 100 µM; with HCT-116 colon, over 100 µM; in the assay on SNB-75 CNS, 4.65 µM; in the assay on SF-539 CNS, over 100 µM. The TGI in the assay with EKVX NSCLC, in the assay with MCF7 breast and with HL-60(TB) leukemia was over 100 µM throughout.
